Measurements from article PMC6691192 (Chemical communications (Cambridge, England), 2019).

Tested on: non-cancerous human breast cell line MCF-10A
Assay: Cell viability assay
Format: cell-based
Conditions: for EC50(C)/EC50 (B): selectivity ratio MCF-10A over BT-474; for EC50(C)/EC50(A): selectivity ratio MCF-10A over MCF-7

Molecule	EC50(C)/EC50 (B)	EC50(C)/EC50(A)
CC[P](CC)(CC)=[Au][S][C@@H]1O[C@H](COC(C)=O)[C@@H](OC(C)=O)[C@H](OC(C)=O)[C@H]1OC(C)=O [AF, [(2R,3R,4S,5R,6S)-3,4,5-tris(acetyloxy)-6-{[(triethyl-λ5-phosphanylidene)aurio]sulfanyl}oxan-2-yl]methyl acetate]	0.81 ± 0.13	0.78 ± 0.11
[Cl][Au].c1ccc(P(c2ccccc2)c2ccccc2)cc1 [[AuCl(PPh3)]]	5.70 ± 0.43	5.30 ± 0.61
[Au(mba)(PPh3)]	1.57 ± 0.13	2.34 ± 0.35
